Experimental data reported in US9889180B2, “Method of treating cancer” (Agency for Science, Technology and Research, priority 2012, dated 2018).

Legend:
[1] = system: IFNGR1 promoter; assay: ChIP analysis of EZH2 and H3K27me3 enrichments at IFNGR1 in DU145 cells; type: cell-based, human; settings: GSK126 (5 μM), 3 days, compared with DZNep
Procedure: ChIP assays were performed as described previously. […] The immunoprecipitated DNA was quantified by quantitative real-time PCR using KAPA SyBr Fast qPCR kit (KAPA biosystems) with the specific ChIP primers as listed in the Table 4. Quantification of binding to the promoter was defined as the percentage of the whole cell lysate input DNA. The fold enrichment was derived by normalizing the specific antibody enriched against the IgG-enriched chromatin. CNR1 serves a positive control and Actin is a negative control. Significance of target genes was assessed relative to Actin level.

[2] = system: DU145 cells; assay: FACS sub-G1 DNA analysis (apoptosis) in DU145 cells; type: cell-based, human; settings: for apoptotic effect (sub-G1) / apoptosis (sub-G1) with other epigenetic compounds: in combination with IFN-γ; for apoptotic effect (sub-G1): treated for either 3 days or 10 days; for apoptosis (sub-G1) with other epigenetic compounds: compared with DZNep
Procedure: For the assessment of cell death, cells were harvested in 70% ethanol. Fixed cells were stained with Propidium Iodide (P.I) (50 μg/mL). The stained cells were analyzed for DNA content by FACS in a FACSCalibur (Becton Dickinson Instrument). % of cell death was defined as the sub-G1 population quantified using the CellQuest software (Becton Dickinson). The percentage of dead cells or sub-G1 cells was calculated by comparing the results of each experiment to the results from DMSO-treated cells. Each assay was repeated a minimum of three times, with results reported as means+s.e.m.

[3] = system: IFNGR1 expression and IFN-γ-STAT1 signaling; assay: qRT-PCR and western blot of IFNGR1 expression and IFN-γ signaling in DU145 cells; type: cell-based, human
Procedure: All cells were maintained at 37° C. with 5% CO2. Cells were grown until they were 80% confluent before they are treated the respective drugs. For drug treatment, DZNep and GSK126 were purchased from Pharmaron Inc. (Beijing, China), GSK343 was kindly provided by Chemical Probes of University of Toronto, 5′Aza, TSA and human recombinant IFN-γ was purchased from Sigma. For rescue experiment using IFNGR1 blocking antibody, the neutralizing antibody that specifically targets IFNGR1 (anti-CD119, GIR-208, BD Pharmingen) was added to the medium 4 hour prior to the addition of DZNep or/and IFN-γ. Total RNA was isolated by using Trizol (Invitrogen) and purified with the RNeasy Mini Kit (Qiagen). The microarray hybridization was performed using the Illumina Gene Expression Sentrix BeadChip HumanRef-8_V3, and data analysis was performed by GeneSpring software from Agilent Technologies as described previously. The analyzed gene sets by GeneSpring were next subjected to Ingenuity Pathway Analysis (IPA) for gene ontology (GO) analysis. Reverse transcription and quantitative PCR assays were performed using High Capacity cDNA Archive kit and KAPA SyBr Fast qPCR kit (KAPA biosystems). For quantification of mRNA levels, 18S level was used as an internal control. All reactions were analyzed in an Applied Biosystems PRISM 7500 Fast Real-Time PCR system in 96-well plate format. Western Blotting was performed as described previously. Briefly, Cells were scraped, collected, and lysed in RIPA buffer. To release histones from chromatin, cell lysates were further sonicated for 15 sec using a XL2000 Microson Ultrasonic Processor (Misonix). Equal amounts of protein (30 μg) were separated on SDS-polyacrylamide gels and transferred to PVDF membranes. The blots were probed with antibodies against EED (07-368), SUZ12 (07-379), trimethylated H3-K27 (07-449), Acetyl-Histone H3 (06-599), which were purchased from Upstate Biotechnology. IFNGR1 (GIR-94) and anti-IFI16 (1G7) were purchased from Santa Cruz. EZH2 phospho S21 (00388) was purchased from Bethyl Laboratories. EZH2 (AC22), P110α PI3K, p-AKT (T308), p-AKT (S473), pSTAT1Y701, total STAT1, Histone H3 (3H1), Beclin-1 and cleaved PARP were purchased from Cell Signaling. Myc and Actin were purchased from Roche Applied Science and Sigma-Aldrich, respectively.

[4] = system: solid tumor cells; settings: very recent report; cited from earlier work
[5] = target: T1, EZH2/PRC2 and H3K27me3 (Homo sapiens, UniProt Q15910); assay: Western blot of PRC2 proteins and H3K27me3 in DU145 cells; type: cell-based
T1 construct: endogenous in cells; host or cells: DU145 (named by the earlier reading of the assay)
T1 sequence (Q15910 whole entry): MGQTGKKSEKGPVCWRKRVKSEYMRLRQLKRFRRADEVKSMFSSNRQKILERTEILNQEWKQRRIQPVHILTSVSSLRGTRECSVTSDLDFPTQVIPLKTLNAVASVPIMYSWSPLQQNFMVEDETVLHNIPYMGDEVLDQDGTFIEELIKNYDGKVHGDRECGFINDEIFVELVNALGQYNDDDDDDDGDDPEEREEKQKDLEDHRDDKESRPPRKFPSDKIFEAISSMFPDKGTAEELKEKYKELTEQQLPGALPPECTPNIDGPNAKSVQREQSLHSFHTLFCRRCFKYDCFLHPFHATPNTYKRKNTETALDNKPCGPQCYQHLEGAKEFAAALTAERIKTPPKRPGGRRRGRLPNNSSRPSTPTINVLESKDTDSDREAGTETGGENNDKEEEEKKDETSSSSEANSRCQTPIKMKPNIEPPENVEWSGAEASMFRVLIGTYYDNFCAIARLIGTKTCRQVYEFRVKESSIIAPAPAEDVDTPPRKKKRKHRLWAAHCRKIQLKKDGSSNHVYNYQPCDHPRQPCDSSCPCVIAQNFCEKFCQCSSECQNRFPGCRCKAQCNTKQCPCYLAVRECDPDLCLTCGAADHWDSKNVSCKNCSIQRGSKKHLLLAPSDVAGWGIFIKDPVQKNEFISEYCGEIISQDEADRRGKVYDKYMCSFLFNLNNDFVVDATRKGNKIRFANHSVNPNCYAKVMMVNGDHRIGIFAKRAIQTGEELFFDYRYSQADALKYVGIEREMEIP
T1 sequence (O75530 whole entry partner): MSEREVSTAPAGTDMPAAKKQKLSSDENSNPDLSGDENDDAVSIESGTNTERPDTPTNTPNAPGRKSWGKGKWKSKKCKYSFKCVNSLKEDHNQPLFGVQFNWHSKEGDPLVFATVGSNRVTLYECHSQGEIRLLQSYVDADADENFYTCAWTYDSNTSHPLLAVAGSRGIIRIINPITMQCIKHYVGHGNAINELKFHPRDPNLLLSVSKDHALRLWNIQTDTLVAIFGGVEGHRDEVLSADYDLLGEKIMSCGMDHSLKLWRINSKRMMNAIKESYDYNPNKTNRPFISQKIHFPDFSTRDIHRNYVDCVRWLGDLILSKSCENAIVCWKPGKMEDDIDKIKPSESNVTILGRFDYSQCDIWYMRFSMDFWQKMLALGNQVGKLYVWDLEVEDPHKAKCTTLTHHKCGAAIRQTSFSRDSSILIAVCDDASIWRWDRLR
T1 sequence (Q15022 whole entry partner): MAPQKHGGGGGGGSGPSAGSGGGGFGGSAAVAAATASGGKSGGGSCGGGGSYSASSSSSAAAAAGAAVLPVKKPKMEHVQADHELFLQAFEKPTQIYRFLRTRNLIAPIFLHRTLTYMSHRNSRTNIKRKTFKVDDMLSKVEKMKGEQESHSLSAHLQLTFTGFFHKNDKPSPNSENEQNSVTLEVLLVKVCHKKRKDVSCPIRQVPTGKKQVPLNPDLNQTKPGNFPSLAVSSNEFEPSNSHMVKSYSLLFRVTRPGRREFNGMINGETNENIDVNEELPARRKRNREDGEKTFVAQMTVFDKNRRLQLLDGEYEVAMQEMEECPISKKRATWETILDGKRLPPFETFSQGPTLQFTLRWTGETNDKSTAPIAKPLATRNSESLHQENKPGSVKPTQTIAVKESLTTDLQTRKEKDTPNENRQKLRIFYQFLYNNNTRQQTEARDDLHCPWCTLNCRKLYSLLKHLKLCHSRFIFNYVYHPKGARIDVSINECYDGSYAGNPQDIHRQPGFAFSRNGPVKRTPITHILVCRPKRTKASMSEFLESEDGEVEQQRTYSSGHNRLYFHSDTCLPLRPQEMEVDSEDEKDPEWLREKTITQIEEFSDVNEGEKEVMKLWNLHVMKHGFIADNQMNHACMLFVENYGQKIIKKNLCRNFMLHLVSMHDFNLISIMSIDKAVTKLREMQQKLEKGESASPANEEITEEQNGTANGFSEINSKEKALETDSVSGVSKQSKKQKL
Procedure: Western Blotting was performed as described previously. Briefly, Cells were scraped, collected, and lysed in RIPA buffer. To release histones from chromatin, cell lysates were further sonicated for 15 sec using a XL2000 Microson Ultrasonic Processor (Misonix). Equal amounts of protein (30 μg) were separated on SDS-polyacrylamide gels and transferred to PVDF membranes. The blots were probed with antibodies against EED (07-368), SUZ12 (07-379), trimethylated H3-K27 (07-449), Acetyl-Histone H3 (06-599), which were purchased from Upstate Biotechnology. IFNGR1 (GIR-94) and anti-IFI16 (1G7) were purchased from Santa Cruz. EZH2 phospho S21 (00388) was purchased from Bethyl Laboratories. EZH2 (AC22), P110α PI3K, p-AKT (T308), p-AKT (S473), pSTAT1Y701, total STAT1, Histone H3 (3H1), Beclin-1 and cleaved PARP were purchased from Cell Signaling. Myc and Actin were purchased from Roche Applied Science and Sigma-Aldrich, respectively.

[6] = system: LNCaP cells; assay: Cell proliferation assay (CellTiter-Glo) in LNCaP cells; type: cell-based, human; settings: siRNA knockdown combined with IFN-γ treatment
Procedure: (§1) The optimal cell seeding was determined empirically for all cell lines by examining the growth of a wide range of seeding densities in a 96-well format to identify conditions that permitted proliferation for 6 days. Cells were then plated at the optimal seeding density 24 h before siRNA or drug treatment in triplicate. Plates were incubated for 6 days at 37° C. in 5% CO2. Cells were then lysed with CellTiter-Glo (CTG) (Promega) and chemiluminescent signal was detected with a microplate reader (TECAN). In addition, an untreated plate of cells was harvested at the time of drug or siRNA addition (T0) to quantify the starting number of cells. CTG values obtained after the 6 day treatment were expressed as percentages of the T0 value and plotted against time of treatment. Cells received 1-5 μM of DZNep, 25 ng/mL of IFN-γ and 0.1-2.5 μM of GSK343 unless stated otherwise for 72-96 h.

[7] = system: DU145 cells; assay: Cell proliferation assay (CellTiter-Glo) in DU145 cells; type: cell-based, human; settings: siRNA knockdown combined with IFN-γ treatment
Procedure: as §1

[8] = system: DU145 xenograft tumor; assay: DU145 xenograft tumor growth in male athymic nude mice; type: in vivo; settings: IFN-γ 1×10^7 IU/kg i.p. daily, DZNep 1 mg/kg s.c. every alternating day, 38 days
Procedure: For in vivo evaluation of DZNep and IFN-γ treatment, the experiments were conducted in compliance with animal protocol approved by the ASTAR-Biopolis Institutional Animal Care and Use Committee (IACUC) of Singapore. DU145 cells were subcutaneously injected into 6-8 week male nude mice at 5×10^6 cells, followed by treatment with vehicle, IFN-γ (1×10^7 IU/kg) alone, DZNep (1 mg/kg) alone or combined DZNep (1 mg/kg) with IFN-γ (1×10^7IU/kg). IFN-γ was administered by intraperitoneal injection daily and DZNep by subcutaneous injection on every alternating day over a duration of 38 days after average tumor size reached around 150 mm^3. Tumors were measured by vernier calliper at least twice per week and tumors volume was calculated with formula: V=W*W*L/2. Each xenograft treatment arm comprised of 5-8 mice. Differences among groups and treatments were determined by ANOVA followed by t tests. (***p<0.001, n.s=not significant) Error bars represent means±s.e.m

Question: Which results are given for CC[C@H](C)n1cc(C)c2c(C(=O)NCc3c(C)cc(C)[nH]c3=O)cc(-c3ccc(N4CCNCC4)nc3)cc21 [GSK126, N-[(4,6-dimethyl-2-oxo-1,2-dihydro-3-pyridinyl)methyl]-3-methyl-1-((1S)-1-methylpropyl)-6-[6-(1-piperazinyl)-3-pyridinyl]-1H-indole-4-carboxamide]?
Answer: H3K27me3 enrichment at the IFNGR1 gene promoter [1]: more efficiently depleted H3K27me3; apoptotic effect (sub-G1) [2]: failed to see an apoptotic effect; IFNGR1 expression ([3]; GSK126 up to 10 μM for 10 days): modest induction of IFNGR1; ability to induce the loss of cell viability [4]: unable to do so

Question: What does the source list for CCCc1cc(C)[nH]c(=O)c1CNC(=O)c1cc(-c2ccnc(N3CCN(C)CC3)c2)cc2c1cnn2C(C)C [GSK343, N-[(6-methyl-2-oxo-4-propyl-1,2-dihydropyridin-3-yl)methyl]-6-[2-(4-methylpiperazin-1-yl)pyridin-4-yl]-1-(propan-2-yl)-1H-indazole-4-carboxamide]?
Answer: depletion of H3K27me3 ([5]; GSK343 at as low as 0.1 μM, 3 days): efficient depletion of H3K27me3; apoptotic effect (sub-G1) [2]: failed to see an apoptotic effect; IFNGR1 expression ([3]; GSK343 up to 2.5 μM for 3 days): did not show an induction of IFNGR1

Question: Which “apoptosis (sub-G1) with other epigenetic compounds” value [2] does the source give for O=C(CCCCCCC(=O)Nc1ccccc1)NO [SAHA] here?
Answer: did not give rise to such a response

Question: With CC(/C=C/C(=O)NO)=C\[C@@H](C)C(=O)c1ccc(N(C)C)cc1 [TSA] as the molecule, how does the “apoptosis (sub-G1) with other epigenetic compounds” value [2] read?
Answer: did not give rise to such a response

Question: Which “cell growth after knockdown” value [6] does the source give for “MYC knockdown: MYC siRNA: 5′-UCCUGAGACAGAUCAGCAACAACCG-3′ (SEQ ID NO:2) (other strand not given here)” here?
Answer: no such an effect was seen

Question: What about the “EZH2 expression after knockdown” value [5] of the same molecule?
Answer: decreased EZH2 expression

Question: And the “cell growth after knockdown” value [7]?
Answer: remarkable synergy in cell growth regression

Question: What about the “apoptosis (sub-G1) after knockdown” value ([2]; siRNA knockdown in combination with IFN-γ) of the same molecule?
Answer: apoptosis induction

B1: IFN-γ: human recombinant IFN-γ purchased from Sigma; enhancer of interferon-gamma receptor activity (protein)
chain: QDPYVKEAENLKKYFNAGHSDVADNGTLFLGILKNWKEESDRKIMQSQIVSFYFKLFKNFKDDQSIQKSVETIKEDMNVKFFNSNKKKRDDFEKLTNYSVTDLNVQRKAIHELIQVMAELSPAAKTGKRKRSQMLFRGRRASQ
Question: Which xenograft tumor growth [8] does the source give for B1 here?
Answer: slowed down the tumor growth
